Test results taken from patent US20180125796A1, “TREATMENT OF MYCOBACTERIAL INFECTION” (priority 2015, published 2018).

Tests used:
[1] = tested on: mCherry-expressing M. bovis BCG; format: cell-based
ER/neutral Ca^2+ store = experiment: Cytosolic Ca^2+ / ER Ca^2+ store content probed with ionomycin; format: cell-based
[2] = cited from earlier work; for neurological side effects: adult mice, Andersson et al. 2004; for CNS penetration: mouse, in vivo
GSL biosynthesis = details: cited from earlier work
[3] = mouse models of GSL storage diseases; cited from earlier work
[4] = tested on: total ganglioside and GM1 content; details: Kasperzyk et al. 2005; cited from earlier work
M. smegmatis [5] = experiment: Clearance of M. smegmatis in wild-type mouse macrophages; format: cell-based, Mycobacterium smegmatis; details: U18666A-treated wild-type mouse macrophages; FIG. 13
M. smegmatis [6] = experiment: Clearance of M. smegmatis in primary human macrophages; format: cell-based, Mycobacterium smegmatis; details: primary human macrophages treated with U18666A; FIG. 14
M. smegmatis [7] = experiment: Clearance of M. smegmatis in RAW 246.7 cells; format: cell-based, Mycobacterium smegmatis; details: RAW 246.7 cells incubated with U18666A (1 μg/ml, 48 hours) prior to infection; relative to untreated cells; FIG. 12
[8] = tested on: sarco-endoplasmic reticulum Ca^2+-ATPase (SERCA); details: Bilmen et al. 2001; cited from earlier work
BCG = format: cell-based, M. bovis BCG
GSL levels = details: mice; Platt 1997; cited from earlier work
[9] = tested on: lysosomal expansion/storage; experiment: Lysotracker fluorescence (lysosomal expansion/storage); format: cell-based; details: FIG. 6B
Experimental: Cells were live stained with 50 nM Lysotracker green (Molecular Probes) in PBS at room temperature for 30 min prior to washing.

NPC phenotypes = format: cell-based
LE/Lys Ca^2+ = format: cell-based
GSL = format: cell-based
NPC1 = experiment: TDM on bone marrow-derived macrophages from NPC1 heterozygous mice; format: cell-based, mouse

For `OC[C@H]1O[C@@H]2O[C@H]3[C@H](O)[C@@H](O)[C@@H](O[C@H]4[C@H](O)[C@@H](O)[C@@H](O[C@H]5[C@H](O)[C@@H](O)[C@@H](O[C@H]6[C@H](O)[C@@H](O)[C@@H](O[C@H]7[C@H](O)[C@@H](O)[C@@H](O[C@H]8[C@H](O)[C@@H](O)[C@@H](O[C@H]1[C@H](O)[C@H]2O)O[C@@H]8CO)O[C@@H]7CO)O[C@@H]6CO)O[C@@H]5CO)O[C@@H]4CO)O[C@@H]3CO` [3-cyclodextrin, β-cyclodextrin], the “mycobacterial clearance, agent alone” value [1] was “neither of these molecules alone promoted mycobacterial clearance”.
In the case of `COc1ccc(/C=C/C(=O)C(C)(C)C(=O)/C=C/c2ccc(OC)c(OC)c2)cc1OC` [FLLL31], the “effect on cytosolic Ca^2+ levels” value (ER/neutral Ca^2+ store) is reported as “has no effect on cytosolic Ca^2+ levels” and the BCG clearance [1] is reported as “had no effect”.
In the case of `CCCCN1C[C@H](O)[C@@H](O)[C@@H](O)[C@H]1CO` [NB-DGJ, N-butyldeoxygalactonojirimycin], the neurological side effects [2] is given as “not to cause neurological side effects”, the CNS penetration [2] is given as “penetrate the CNS” and the “inhibition of GSL biosynthesis relative to NB-DNJ” value (GSL biosynthesis) is given as “comparably to NB-DNJ”. For the same molecule, the tolerability [3] was “very well tolerated” and the “total ganglioside and GM1 content in cerebrum-brainstem” value [4] was “marked reduction”.
With `CCN(CC)CCO[C@H]1CC[C@@]2(C)C(=CC[C@@H]3[C@@H]2CC[C@]2(C)C(=O)CC[C@@H]32)C1` [U18666A] the “clearance of M. smegmatis” value (M. smegmatis [5]) was “Impaired clearance of M. smegmatis”, the “clearance of M. smegmatis” value (M. smegmatis [6]) was “Impaired clearance of M. smegmatis” and the “ability to clear non-pathogenic M. smegmatis” value (M. smegmatis [7]) was “impaired ability to clear non-pathogenic M. smegmatis”.
In the case of `COc1cc(/C=C/C(=O)CC(=O)/C=C/c2ccc(O)c(OC)c2)ccc1O` [curcumin], the “effect on cytosolic Ca^2+ levels” value (ER/neutral Ca^2+ store) is listed as “raises cytosolic [Ca^2+ ]”, the “Ca^2+ uptake by SERCA” value [8] is listed as “inhibits Ca^2+ uptake” and the BCG clearance [1] is listed as “promoted BCG clearance”. The “bacterial clearance in cells loaded with the Ca^2+ chelator BAPTA” value [1] was “abrogated”, the “level of infection (average fluorescence intensity of mCherry-expressing BCG)” value [1] was “significantly lower level of infection” and the mycobacterial burden (BCG) was “significantly reduced mycobacterial burden”.
In the case of `CCCCN1C[C@H](O)[C@@H](O)[C@H](O)[C@H]1CO` [miglustat, N-butyldeoxynojirimycin], the neurological side effects [2] is listed as “not to cause neurological side effects”, the CNS penetration [2] is listed as “penetrate the CNS” and the “duration of treatment after which the effect on GSL levels stabilizes” value (GSL levels) is listed as 10 days. For the same molecule, the “onset of decrease in GSL levels” value (GSL levels) was “measurable decrease in GSL levels within a day of treatment” and the “mycobacterial clearance, agent alone” value [1] was “neither of these molecules alone promoted mycobacterial clearance”.
With “glucose monomycolate [GMM from non-pathogenic M. smegmatis]” the “Lysotracker fluorescence, NPC-like lysosomal expansion/storage” value [9] was “minimal effects”.
With glucose monomycolate [GMM] the “Lysotracker fluorescence, NPC-like lysosomal expansion/storage” value [9] was “only modest lysosomal expansion that did not reach statistical significance”.
With “trehalose dimycolate [TDM from M. bovis]” the GM1 trafficking (NPC phenotypes) was “GM1 mistrafficking”, the “LE/Lys Ca^2+ levels” value (LE/Lys Ca^2+) was “reduced LE/Lys Ca^2+ levels” and the GSL levels (GSL) was “GSL accumulation”.
For trehalose dimycolate [TDM], the “susceptibility of Npc1+/- macrophages (50% of wild-type NPC1 protein) to inhibition by TDM, versus wild-type” value (NPC1) was “more susceptible to inhibition” and the “Lysotracker fluorescence, NPC-like lysosomal expansion/storage” value [9] was “greatest increase in Lysotracker fluorescence”.
With trehalose monomycolate [TMM] the “Lysotracker fluorescence, NPC-like lysosomal expansion/storage” value [9] was “only modest lysosomal expansion that did not reach statistical significance”.
